Results: patent US10787444B2, “Compounds for the modulation of myc activity” (Syros Pharmaceuticals, Inc., priority 2015, dated 2020)
Structures can show the parent of a compound that is named as a salt.

Tested on: human small lung cancer cell line H2171
Assay: Cell Viability Assay (ATPlite)
Type: cell-based
Details: Homo sapiens, NCI-H2171, 72 h, Table 2, compounds of FIG. 1; H2171 cells, three days, ATPlite; calculated IC50 class; read-out: H2171 Activity
Procedure: Compounds of the invention were assayed for cell viability using the human small lung cancer cell line H2171 as described in the following protocol. Cells were counted and adjusted to 20,000 cells/mL. Using a Biotek EL406, 50 μL of cells in media were distributed into 384 well white plates from Thermo. Immediately after plating, compound in DMSO was distributed to plates. Compounds were added to plates using a 50 nL 384 well pin transfer manifold on a Janus workstation. Stocks were arrayed in 10 point dose response in DMSO stock in 384 well Greiner compound plates. After the addition of compounds, plates were incubated for three days in a 37° C. incubator. Cell viability was read out using ATPlite from Perkin Elmer. Lyophilized powder was resuspended in lysis buffer and diluted 1:2 with deionized water. 25 μL of this solution was added to each well using the Biotek liquid handler. Plates were incubated for 15 minutes at room temperature before signal was read on an Envision Plate Reader. The data from this assay are summarized in Tables 2 and 3 below (H2171 activity).

Compared with `CC(C)N1CCc2c(sc(NC(=O)CCNC3CCCC3)c2-c2nc3ccccc3s2)C1` [Compound 542, N-(3-(Benzo[d]thiazol-2-yl)-6-isopropyl-4,5,6,7-tetrahydrothieno[2,3-c]pyridin-2-yl)-3-(cyclopentylamino)propanamide], `CCC(C)NCCC(=O)Nc1sc2c(c1-c1nc3cc(I)ccc3s1)CCN(C(C)C)C2` (stereo not shown) [Compound 162, 3-(sec-butylamino)-N-(3-(5-iodobenzo[d]thiazol-2-yl)-6-isopropyl-4,5,6,7-tetrahydrothieno[2,3-c]pyridin-2-yl)propanamide dihydrochloride] is higher in IC50: less than 0.3 µM for the first, 1 to 10 µM for the second.

With `CCOC(=O)CNCCC(=O)Nc1sc2c(c1-c1nc3ccccc3s1)CCNC2` [Compound 148, Ethyl (3-((3-(benzo[d]thiazol-2-yl)-4,5,6,7-tetrahydrothieno[2,3-c]pyridin-2-yl)amino)-3-oxopropyl)glycinate hydrochloride] the IC50 was greater than 10 µM.

Same assay, conditions: Table 2, compounds of FIG. 1; H2171 cells, three days, ATPlite; calculated IC50 class; listed as 111; read-out: H2171 Activity

`CC(C)N1CCc2c(sc(NC(=O)CCNC3CCCC3)c2-c2nc3ccccc3s2)C1` [Compound 542, N-(3-(Benzo[d]thiazol-2-yl)-6-isopropyl-4,5,6,7-tetrahydrothieno[2,3-c]pyridin-2-yl)-3-(cyclopentylamino)propanamide] gave an IC50 of 1 to 10 µM.

Molecular target: T1, c-Myc/Max/Ebox DNA (Homo sapiens, UniProt P01106)
T1 construct: his6 (cleaved yes)
T1 sequence (P01106 whole entry): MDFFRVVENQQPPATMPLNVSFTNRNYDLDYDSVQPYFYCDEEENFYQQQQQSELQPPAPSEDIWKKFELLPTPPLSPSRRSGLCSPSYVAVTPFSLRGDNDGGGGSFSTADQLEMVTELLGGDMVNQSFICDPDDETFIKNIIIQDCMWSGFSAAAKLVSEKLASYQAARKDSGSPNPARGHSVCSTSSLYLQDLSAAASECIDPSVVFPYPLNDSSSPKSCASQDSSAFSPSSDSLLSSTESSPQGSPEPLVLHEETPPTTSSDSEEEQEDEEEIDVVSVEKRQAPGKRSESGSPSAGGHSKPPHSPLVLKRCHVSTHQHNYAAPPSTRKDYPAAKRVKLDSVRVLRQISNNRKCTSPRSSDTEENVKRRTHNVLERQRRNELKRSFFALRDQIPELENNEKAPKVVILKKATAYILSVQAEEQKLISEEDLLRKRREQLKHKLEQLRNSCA
Assay: c-Myc/Max/Ebox DNA AlphaScreen Assay
Type: binding
Details: Table 2, compounds of FIG. 1; calculated IC50 class
Procedure: Compounds of the invention were assayed for c-Myc/Max/EBox activity as described in the following protocol. Human his6-c-Myc and his6-Max were used with biotinylated DNA containing a single Ebox sequence (biotin[…]) purchased from MWG Operon. Free c-Myc was generated from his6-c-Myc through thrombin cleavage of the his6 tag. For 384-well plate assays, 10 μL of a 2× solution of free c-Myc (20 nM final), Ni^2+ coated Acceptor Beads (25 μg/ml final), and biotinylated Ebox oligo (10 nM final) were added to 384-well plates with a Biotek EL406 liquid handler. 50 nL of compounds from stock plates were added by pin transfer using a Janus Workstation (PerkinElmer), allowing the compounds to interact with c-Myc prior to c-Myc binding with Max. In the current assay, DMSO was not allowed to exceed 2% v/v of the assay. 10 μl of 2× master mix containing streptavidin-coated donor beads (25 μg/ml final) and his6-Max (5 nM) were added. AlphaScreen measurements were performed on an Envision plate reader (PerkinElmer) utilizing the manufacturer's protocol.
Both master mixes were made in room temperature assay buffer (50 mM HEPES, 150 mM NaCl, 0.2% w/v BSA, 0.02% w/v Tween20, 40 μg/ml glycogen, 500 μM DTT, pH 8.0, wherein both DTT and glycogen were added fresh). Alpha beads were added to respective master solutions. All subsequent steps were performed in low light conditions. Solution 1:2× solution of components with final concentrations of c-Myc Ni-coated Acceptor Beads (25 μg/ml), and biotinylated Ebox oligo (10 nM). Solution 2:2× solution of streptavidin-coated donor beads (25 μg/ml final) and his6-Max 10 μL. […] 50 nL of compounds from stock plates were added by pin transfer using a Janus Workstation. Solution 2 (10 μl) was added with the liquid handler. Plates were sealed with foil to block light exposure and prevent evaporation. Plates were very briefly centrifuged followed by 2 hour incubation. […] Excitation was at 680 nm for donor bead release of singlet oxygen and emission was read with a bandpass filter from 520-620 nm.

First: CCOC(=O)CNCCC(=O)Nc1sc2c(c1-c1nc3ccccc3s1)CCN(C(C)C)C2 [Compound 138, Ethyl (3-((3-(benzo[d]thiazol-2-yl)-6-isopropyl-4,5,6,7-tetrahydrothieno[2,3-c]pyridin-2-yl)amino)-3-oxopropyl)glycinate]
Second: CC(C)N1CCc2c(sc(NC(=O)CCNCCCOCCOCCOCCCN)c2-c2nc3ccccc3s2)C1 [Compound 120, 1-amino-N-(3-(benzo[d]thiazol-2-yl)-6-isopropyl-4,5,6,7-tetrahydrothieno[2,3-c]pyridin-2-yl)-4,7,10-trioxa-14-azaheptadecan-17-amide]
The IC50 of the first is higher: 0.3 to 1 µM for the first, less than 0.3 µM for the second. The second is the more potent here.

Compared with `CC(C)N1CCc2c(sc(NC(=O)CCNCC(=O)O)c2-c2nc3ccccc3s2)C1` [Compound 168, (3-((3-(benzo[d]thiazol-2-yl)-6-isopropyl-4,5,6,7-tetrahydrothieno[2,3-c]pyridin-2-yl)amino)-3-oxopropyl)glycine], `O=C(CCNCc1cn[nH]c1)Nc1sc2c(c1-c1nc3ccccc3s1)CCNC2` [Compound 167, 3-(((1H-pyrazol-4-yl)methyl)amino)-N-(3-(benzo[d]thiazol-2-yl)-4,5,6,7-tetrahydrothieno[2,3-c]pyridin-2-yl)propanamide] is lower in IC50: 0.3 to 1 µM for the first, less than 0.3 µM for the second.

`COCCNCCC(=O)Nc1sc2c(c1-c1nc3ccccc3s1)C[C@H](C)NC2` [Compound 538, (S)—N-(3-(Benzo[d]thiazol-2-yl)-5-methyl-4,5,6,7-tetrahydrothieno[2,3-c]pyridin-2-yl)-3-((2-methoxyethyl)amino)propanamide] and `Cc1cccc2oc(-c3c(NC(=O)CCNC(C)C)sc4c3CCNC4)nc12` [Compound 311, 3-(Isopropylamino)-N-(3-(4-methylbenzo[d]oxazol-2-yl)-4,5,6,7-tetrahydrothieno[2,3-c]pyridin-2-yl)propanamide dihydrochloride] fall in the same range of IC50: 0.3 to 1 µM for the first, 0.3 to 1 µM for the second.

Compared with `O=C(O)CNCCC(=O)Nc1sc2c(c1-c1nc3ccccc3s1)CCNC2` [Compound 166, (3-((3-(benzo[d]thiazol-2-yl)-4,5,6,7-tetrahydrothieno[2,3-c]pyridin-2-yl)amino)-3-oxopropyl)glycine], “N-(3-(Benzo[d]thiazol-2-yl)-6-isopropyl-4,5,6,7-tetrahydrothieno[2,3-c]pyridin-2-yl)-3-(isobutylamino)propanamide [Compound 552]” is higher in IC50: 0.3 to 1 µM for the first, greater than 10 µM for the second.

First: CCC(C)NCCC(=O)Nc1sc2c(c1-c1nc3cc(Br)ccc3s1)CCNC2 (stereo not shown) [Compound 139, N-(3-(5-bromobenzo[d]thiazol-2-yl)-4,5,6,7-tetrahydrothieno[2,3-c]pyridin-2-yl)-3-(sec-butylamino)propanamide]
Second: COCCNCCC(=O)Nc1sc2c(c1-c1nc3ccc(-c4ccncc4)cc3s1)CC(C)NC2C (single isomer, unassigned) [Compound 518, N-(5,7-Dimethyl-3-(6-(pyridin-4-yl)benzo[d]thiazol-2-yl)-4,5,6,7-tetrahydrothieno[2,3-c]pyridin-2-yl)-3-((2-methoxyethyl)amino)propanamide]
The IC50 of the first is lower: less than 0.3 µM for the first, 1 to 10 µM for the second.

Compared with `CC(C)N1CCc2c(sc(NC(=O)CCNCCc3ccccc3Cl)c2-c2nc3ccccc3s2)C1` [Compound 109, N-(3-(benzo[d]thiazol-2-yl)-6-isopropyl-4,5,6,7-tetrahydrothieno[2,3-c]pyridin-2-yl)-3-((2-chlorophenethyl)amino)propanamide], “N-((5S,7R)-5,7-dimethyl-3-(5-(pyridin-4-yl)benzo[d]thiazol-2-yl)-4,5,6,7-tetrahydrothieno[2,3-c]pyridin-2-yl)-3-((2-methoxyethyl)amino)propanamide [Compound 532]” is lower in IC50: greater than 10 µM for the first, 1 to 10 µM for the second.

Same assay, conditions: Table 3, compounds of FIG. 2; calculated IC50 class

First: CC(=O)Nc1sc2c(c1-c1nc3ccccc3s1)C(C)CCNC2 (stereo not shown) [Compound 212, N-(3-(benzo[d]thiazol-2-yl)-4-methyl-5,6,7,8-tetrahydro-4H-thieno[2,3-c]azepin-2-yl)acetamide]
Second: CC(=O)Nc1sc2c(c1-c1nc3ccccc3s1)CC(C)NC2 (stereo not shown) [Compound 209, N-(3-(benzo[d]thiazol-2-yl)-5-methyl-4,5,6,7-tetrahydrothieno[2,3-c]pyridin-2-yl)acetamide]
The IC50 of the first is higher: greater than 10 µM for the first, 1 to 10 µM for the second.

`CC(=O)Nc1sc2c(c1-c1nc3ccccc3s1)CCC(NC1CCN(C(=O)OC(C)(C)C)CC1)C2` (stereo not shown) [Compound 228, tert-butyl 4-((2-acetamido-3-(benzo[d]thiazol-2-yl)-4,5,6,7-tetrahydrobenzo[b]thiophen-6-yl)amino)piperidine-1-carboxylate] and `CC(=O)Nc1sc2c(c1-c1nc3ccccc3s1)CCC(NC(C)=O)C2` (stereo not shown) [Compound 222, N,N′-(3-(benzo[d]thiazol-2-yl)-4,5,6,7-tetrahydrobenzo[b]thiophene-2,6-diyl)diacetamide] cannot be ordered by IC50: greater than 10 µM for the first, greater than 10 µM for the second.

First: CCN1[C@H](C)Cc2c(sc(NC(C)=O)c2-c2nc3ccccc3s2)[C@@H]1C [Compound 211, N-(3-(benzo[d]thiazol-2-yl)-6-ethyl-5,7-dimethyl-4,5,6,7-tetrahydrothieno[2,3-c]pyridin-2-yl)acetamide]
Second: CC(=O)Nc1sc2c(c1-c1nc3ccccc3s1)CCN(C(C)C)C2C (stereo not shown) [Compound 216, N-(3-(benzo[d]thiazol-2-yl)-6-isopropyl-7-methyl-4,5,6,7-tetrahydrothieno[2,3-c]pyridin-2-yl)acetamide]
The IC50 of the first is lower: 1 to 10 µM for the first, greater than 10 µM for the second.

First: CC(=O)Nc1sc2c(c1-c1nc3ccccc3s1)C(C)CCN(C(C)C)C2 (stereo not shown) [Compound 213, N-(3-(benzo[d]thiazol-2-yl)-7-isopropyl-4-methyl-5,6,7,8-tetrahydro-4H-thieno[2,3-c]azepin-2-yl)acetamide]
Second: CC(=O)Nc1sc2c(c1-c1nc3ccccc3s1)[C@H](C)CN(C(C)C)C2 [Compound 207, (S)—N-(3-(benzo[d]thiazol-2-yl)-6-isopropyl-4-methyl-4,5,6,7-tetrahydrothieno[2,3-c]pyridin-2-yl)acetamide]
The IC50 of the first is higher: greater than 10 µM for the first, 1 to 10 µM for the second. The second is the more potent here.

`CC(=O)Nc1sc2c(c1-c1nc3ccccc3s1)CC(C(F)(F)F)NC2` (stereo not shown) [Compound 215, N-(3-(benzo[d]thiazol-2-yl)-5-(trifluoromethyl)-4,5,6,7-tetrahydrothieno[2,3-c]pyridin-2-yl)acetamide] and `CC(=O)Nc1sc2c(c1-c1nc3ccccc3s1)CCNC2C(F)(F)F` (stereo not shown) [Compound 214, N-(3-(benzo[d]thiazol-2-yl)-7-(trifluoromethyl)-4,5,6,7-tetrahydrothieno[2,3-c]pyridin-2-yl)acetamide] cannot be ordered by IC50: greater than 10 µM for the first, greater than 10 µM for the second.

`CC(=O)Nc1sc2c(c1-c1nc3ccccc3s1)[C@@H](C)CN(C(C)C)C2` [Compound 208, (R)—N-(3-(benzo[d]thiazol-2-yl)-6-isopropyl-4-methyl-4,5,6,7-tetrahydrothieno[2,3-c]pyridin-2-yl)acetamide] and `CC(=O)Nc1sc2c(c1-c1nc3ccccc3s1)CCNC2C` (stereo not shown) [Compound 210, N-(3-(benzo[d]thiazol-2-yl)-7-methyl-4,5,6,7-tetrahydrothieno[2,3-c]pyridin-2-yl)acetamide] fall in the same range of IC50: 1 to 10 µM for the first, 1 to 10 µM for the second.
